This passage reports emission maximum results from the Deep4Chem optical property database.

This series in a line: solvent given as SMILES.

`c1cc2ccc1-c1ccc(cc1)-c1ccc(s1)-c1ccc(cc1)-c1ccc(cc1)-c1ccc(s1)-c1ccc(cc1)-c1ccc(cc1)-c1ccc(s1)-c1ccc(cc1)-c1ccc(cc1)-c1ccc-2s1` gave an emission maximum (in C1CCOC1) of 472 nm.

As to `Cc1cn2cc(-c3ccccc3)[n-][n+]2c1`, under “in ClCCl”, the emission maximum amounted to 422 nm.

Take `Cc1ccccc1-c1c2ccc(=[N+]3CCCCC3)cc-2oc2cc(N3CCCCC3)ccc12`: the emission maximum is, setting by setting: (in CCO) 584 nm; (in ClCCl) 582 nm.

On to `CCCCN1C(=O)c2cc(Oc3ccc(C(C)(C)C)cc3)c3c4c(Oc5ccc(C(C)(C)C)cc5)c(Oc5ccc(C(C)(C)C)cc5)c5c6c(cc(Oc7ccc(C(C)(C)C)cc7)c(c7c(Oc8ccc(C(C)(C)C)cc8)c(Oc8ccc(C(C)(C)C)cc8)c(c2c37)C1=O)c64)C(=O)N(CCCC)C5=O`, for which the emission maximum (in ClC(Cl)Cl) was 610 nm.

For `O=C([O-])c1ccc(C2=c3cc4c5c(c3Oc3c2cc2c6c3CCCN6CCC2)CCC[N+]=5CCC4)c(C(=O)[O-])c1`, the emission maximum is, setting by setting: (in CCO) 601 nm; (in O) 603 nm.

Turning to `O=Cc1cc(O)ccc1O`, the emission maximum is listed as 423 nm (in CC(C)=O); 484 nm (in CCCO); 487 nm (in CCO); 440 nm (in CN(C)C=O); 438 nm (in CN(C)P(=O)(N(C)C)N(C)C); 479 nm (in CNC=O). Also, the emission maximum is, setting by setting: (in CS(C)=O) 446 nm; (in NC=O) 490 nm.

In the case of `c1ccc(C2c3ccccc3-c3cc4c(cc32)-c2ccccc2C4c2ccccc2)cc1` (stereo unspecified), the emission maximum (in ClCCl) was determined as 360 nm.

Where the note is “in C1CCCCC1”, `COc1ccc(C2=C(c3ccc(OC)cc3)C(C)(C)c3cc(-c4ccccc4)ccc32)cc1` came in with an emission maximum of 417 nm.

In the case of `C(S/C=C/c1ccc(-c2ccc(/C=C/SC=C3CCCCC3)cc2)cc1)=C1CCCCC1`, the emission maximum (in ClCCl) is reported as 433 nm.

Regarding `CCc1ccc(-c2nc(-c3ccc(-n4c5ccccc5c5ccccc54)cc3)cc(-c3ccc(-n4c5ccccc5c5ccccc54)cc3)n2)cc1`, the emission maximum reads like this: (in C1CCOC1) 436 nm; (in CN(C)C=O) 482 nm; (in Cc1ccccc1) 402 nm; (in ClC(Cl)Cl) 435 nm.

As for `COc1ccc2c(c1)-c1cc(OC)ccc1C2=O`, the emission maximum amounted to 490 nm (in C1CCCCC1), 514 nm (in CC#N) and 552 nm (in CCO).

As to `O=C(O)c1ccc2cc3cc(C(=O)O)ccc3cc2c1`, the emission maximum is, setting by setting: (in C1CCOC1) 419 nm; (in CN(C)C=O) 423 nm.

Take `c1ccc(-c2nc(-c3ccccc3)nc(-c3ccc(-n4c5ccccc5c5ccc6c7ccccc7n(-c7ccccc7)c6c54)cc3)n2)cc1`: the emission maximum was 459 nm (in Cc1ccccc1) and 477 nm (in O=P(c1ccccc1)(c1ccccc1)c1ccc2oc3ccc(P(=O)(c4ccccc4)c4ccccc4)cc3c2c1).

For the setting “in C1CCCCC1”, `CCCC1(CCC)c2cc(-c3cccc(C)c3)ccc2-c2ccc(-c3cccc(C)c3)cc21` showed an emission maximum of 363 nm.

With `Fc1cccc(F)c1[B-]1(c2c(F)cccc2F)Oc2c(ccc3c4c(ccc23)C=[N+](c2ccccc2)[B-](c2c(F)cccc2F)(c2c(F)cccc2F)O4)C=[N+]1c1ccccc1`, the emission maximum runs as follows: (in Cc1ccccc1) 592 nm; (in ClCCl) 585 nm.

`COc1ccc(C2=CC3=C(c4c(C)cc(C)cc4C)c4cc(-c5ccc(OC)cc5)c(-c5ccc(OC)cc5)n4[B-](F)(F)[N+]3=C2c2ccc(OC)cc2)cc1`: the emission maximum by setting is: (in C1CCCCC1) 666 nm; (in C1CCOC1) 674 nm; (in CC#N) 673 nm; (in Cc1ccccc1) 677 nm; (in ClCCl) 672 nm.

Regarding `CC1(C)CC(/C=C/c2ccc(-n3cncn3)cc2)=CC(=C(C#N)C#N)C1`, the emission maximum (in C1CCOC1) stood at 520 nm; the emission maximum (in CC#N) came to 522 nm; the emission maximum (in CCO) is 518 nm; the emission maximum (in CCOC(C)=O) is listed as 515 nm; the emission maximum (in ClCCl) was found to be 518 nm; the emission maximum (in c1ccccc1) amounted to 511 nm.

In the case of `N#CC(C#N)=Cc1ccc(-c2cccc(-c3nc4ccccc4s3)c2O)o1`, the emission maximum was determined as 631 nm (in CCO), 605 nm (in ClCCl) and 635 nm (in O).
